Laboratory results reported in US9169254B2, “Spiroimidazolone derivative” (Chugai Seiyaku Kabushiki Kaisha, priority 2009, dated 2015).

Target: T1, human PTH1 receptor (Homo sapiens, UniProt Q03431)
T1 sequence (Q03431 27-593): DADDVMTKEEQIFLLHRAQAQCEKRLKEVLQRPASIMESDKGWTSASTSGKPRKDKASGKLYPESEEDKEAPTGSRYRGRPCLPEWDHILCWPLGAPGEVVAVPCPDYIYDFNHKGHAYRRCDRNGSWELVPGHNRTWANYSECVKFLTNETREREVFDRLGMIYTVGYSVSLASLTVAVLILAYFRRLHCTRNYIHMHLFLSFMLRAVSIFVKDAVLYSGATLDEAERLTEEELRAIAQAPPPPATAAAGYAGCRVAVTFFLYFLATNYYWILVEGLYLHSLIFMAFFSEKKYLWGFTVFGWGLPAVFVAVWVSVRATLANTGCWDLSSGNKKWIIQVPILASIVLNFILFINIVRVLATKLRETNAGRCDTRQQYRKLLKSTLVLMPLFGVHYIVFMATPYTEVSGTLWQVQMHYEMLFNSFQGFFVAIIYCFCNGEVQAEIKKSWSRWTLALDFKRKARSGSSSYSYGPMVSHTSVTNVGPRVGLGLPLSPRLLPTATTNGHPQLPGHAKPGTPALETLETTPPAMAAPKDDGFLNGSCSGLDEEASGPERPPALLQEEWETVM
Assay: In vitro cAMP signal activity in HKRK-B7 cells (LLC-PK1 cells overexpressing the human PTH1 receptor)
Type: cell-based
Details: 0.1 µM

| SMILES | cAMP production activity (%) |
| --- | --- |
| Cc1cc(N(C)C(N)=O)cc(C)c1/C=C/[S@TB3](=O)(=O)N1CCC2(CC1)N=C(c1cccc(C(F)(F)C(F)(F)C(F)(F)C(F)(F)F)c1)NC2=O [Compound 1112, 1-(3,5-dimethyl-4-{(E)-2-[2-(3-nonafluorobutyl-phenyl)-4-oxo-1,3,8-triaza-spiro[4.5]dec-1-ene-8-sulfonyl]-vinyl}-phenyl)-1-methyl-urea] | 76 |

Same assay, conditions: HKRK-B7 cells; compound at 1×10^−3 M; cAMP produced as percentage of that produced by hPTH(1-34) at 100 nM

| SMILES | cAMP production activity (%) |
| --- | --- |
| Cc1cc(N(C)C(N)=O)cc(C)c1/C=C/S(=O)(=O)N1CCC2(CC1)N=C(c1ccc(OCCCC(F)(F)F)cc1)NC2=O [Compound 1020, 1-[3,5-dimethyl-4-((E)-2-{4-oxo-2-[4-(4,4,4-trifluoro-butoxy)-phenyl]-1,3,8-triaza-spiro[4.5]dec-1-ene-8-sulfonyl}-vinyl)-phenyl]-1-methyl-urea] | 81 |
| Cc1cc(CN2C(=O)NC(C)(C)C2=O)cc(C)c1/C=C/S(=O)(=O)N1CCC2(CC1)N=C(C1CCC(CCC(F)(F)F)CC1)NC2=O (stereo not drawn) [Compound 555, 3-[3,5-dimethyl-4-((E)-2-{4-oxo-2-[4-(3,3,3-trifluoro-propyl)-cyclohexyl]-1,3,8-triaza-spiro[4.5]dec-1-ene-8-sulfonyl}-vinyl)-benzyl]-5,5-dimethyl-imidazolidine-2,4-dione] | 40 |
| O=C1NC(C2CCCCC2)=NC12CCN(S(=O)(=O)CCc1cccc3ccccc13)CC2 [Compound 61, 2-cyclohexyl-8-(2-naphthalen-1-yl-ethanesulfonyl)-1,3,8-triaza-spiro[4.5]dec-1-en-4-one] | 43 |
| Cc1cc(N(C)C(N)=O)cc(C)c1/C=C/S(=O)(=O)N1CCC2(CC1)N=C(CCCCCCCC(F)(F)C(F)(F)F)NC2=O [Compound 1303, 1-(3,5-dimethyl-4-{(E)-2-[4-oxo-2-(8,8,9,9,9-pentafluoro-nonyl)-1,3,8-triaza-spiro[4.5]dec-1-ene-8-sulfonyl]-vinyl}-phenyl)-1-methyl-urea] | 102 |
| Cc1cc(N2C(=O)CNC2=O)cc(C)c1CCS(=O)(=O)N1CCC2(CC1)N=C(c1cccc(OC(F)(F)F)c1)NC2=O [Compound 799, 3-(3,5-dimethyl-4-{2-[4-oxo-2-(3-trifluoromethoxy-phenyl)-1,3,8-triaza-spiro[4.5]dec-1-ene-8-sulfonyl]-ethyl}-phenyl)-imidazolidine-2,4-dione] | 7.1 |
| CCCCCCCCC1=NC2(CCN([S@TB17](=O)(=O)CCc3c(C)cc(N(C)C(N)=O)cc3C)CC2)C(=O)N1 [Compound 1142, 1-{3,5-dimethyl-4-[2-(2-octyl-4-oxo-1,3,8-triaza-spiro[4.5]dec-1-ene-8-sulfonyl)-ethyl]-phenyl}-1-methyl-urea] | 68 |
| Cc1cc(CN)ccc1CCS(=O)(=O)N1CCC2(CC1)N=C(C1CCC(CCC(F)(F)F)CC1)NC2=O.O=C(O)C(F)(F)F (stereo not drawn) [Compound 1284, 8-[2-(4-aminomethyl-2-methyl-phenyl)-ethanesulfonyl]-2-[4-(3,3,3-trifluoro-propyl)-cyclohexyl]-1,3,8-triaza-spiro[4.5]dec-1-en-4-one] | 2.5 |
| O=C1NC(C2CCCCC2)=NC12CCN(S(=O)(=O)c1cccc(Cl)c1)CC2 [Compound 1, 8-(3-Chloro-benzenesulfonyl)-2-cyclohexyl-1,3,8-triaza-spiro[4.5]dec-1-en-4-one] | 42 |
| Cc1cc(N(C)C(N)=O)cc(C)c1/C=C\S(=O)(=O)N1CCC2(CC1)N=C(CCCCCc1ccccc1)NC2=O.O=C(O)C(F)(F)F [Compound 1134, 1-(3,5-dimethyl-4-{(Z)-2-[4-oxo-2-(5-phenyl-pentyl)-1,3,8-triaza-spiro[4.5]dec-1-ene-8-sulfonyl]-vinyl}-phenyl)-1-methyl-urea trifluoroacetate] | 50 |
| CCCCCCCCCCCCCC1=NC2(CCN([S@TB18](=O)(=O)CCc3c(C)cc(N(C)C(N)=O)cc3C)CC2)C(=O)N1 [Compound 1140, 1-{3,5-dimethyl-4-[2-(4-oxo-2-tridecyl-1,3,8-triaza-spiro[4.5]dec-1-ene-8-sulfonyl)-ethyl]-phenyl}-1-methyl-urea] | 55 |
| CC(=O)N(C)c1cc(C)c(CCS(=O)(=O)N2CCC3(CC2)N=C(C2CCC(CCC(F)(F)F)CC2)NC3=O)c(C)c1 (stereo not drawn) [Compound 759, N-[3,5-dimethyl-4-(2-{4-oxo-2-[4-(3,3,3-trifluoro-propyl)-cyclohexyl]-1,3,8-triaza-spiro[4.5]dec-1-ene-8-sulfonyl}-ethyl)-phenyl]-N-methyl-acetamide] | 79 |
| Cc1cc(C(=O)N2CCC(O)CC2)cc(C)c1CCS(=O)(=O)N1CCC2(CC1)N=C(c1cccc(OC(F)(F)F)c1)NC2=O [Compound 964, 8-{2-[4-(4-Hydroxy-piperidine-1-carbonyl)-2,6-dimethyl-phenyl]-ethanesulfonyl}-2-(3-trifluoromethoxy-phenyl)-1,3,8-triaza-spiro[4.5]dec-1-en-4-one] | 119 |
| Cc1cc(N2NCCC2=O)ccc1CCS(=O)(=O)N1CCC2(CC1)N=C([C@H]1CC[C@H](C)CC1)NC2=O [Compound 834, 2-(4-methyl-cyclohexyl)-8-{2-[2-methyl-4-(5-oxo-pyrazolidin-1-yl)-phenyl]-ethanesulfonyl}-1,3,8-triaza-spiro[4.5]dec-1-en-4-one] | 76 |
| Cc1cc(C(=O)N2CCC(O)(CF)CC2)cc(C)c1/C=C/S(=O)(=O)N1CCC2(CC1)N=C(c1ccc(S(F)(F)(F)(F)F)cc1)NC2=O [Compound 1245, 8-{(E)-2-[4-(4-fluoromethyl-4-hydroxy-piperidine-1-carbonyl)-2,6-dimethyl-phenyl]-ethenesulfonyl}-2-(4-pentafluorosulfanyl-phenyl)-1,3,8-triaza-spiro[4.5]dec-1-en-4-one] | 115 |
| Cc1cc(CN2C(=O)CNC2=O)cc(C)c1CCS(=O)(=O)N1CCC2(CC1)N=C(C1CCC(C)CC1)NC2=O (stereo not drawn) [Compound 779, 3-(3,5-dimethyl-4-{2-[2-(4-methyl-cyclohexyl)-4-oxo-1,3,8-triaza-spiro[4.5]dec-1-ene-8-sulfonyl]-ethyl}-benzyl)-imidazolidine-2,4-dione] | 53 |
| Cc1cc(CN)cc(C)c1/C=C/S(=O)(=O)N1CCC2(CC1)N=C(C1CCC(CCC(F)(F)F)CC1)NC2=O (stereo not drawn) [Compound 1290, 8-[(E)-2-(4-aminomethyl-2,6-dimethyl-phenyl)-ethenesulfonyl]-2-[4-(3,3,3-trifluoro-propyl)-cyclohexyl]-1,3,8-triaza-spiro[4.5]dec-1-en-4-one] | 6.3 |
| Cc1cc(C(=O)N(C)C)ccc1CCS(=O)(=O)N1CCC2(CC1)N=C(c1ccc(Cl)c(Cl)c1)NC2=O [Compound 98, 4-{2-[2-(3,4-dichloro-phenyl)-4-oxo-1,3,8-triaza-spiro[4.5]dec-1-ene-8-sulfonyl]-ethyl}-3,N,N-trimethyl-benzamide] | 75 |
| CC(=O)N(c1cc(C)c(/C=C/S(=O)(=O)N2CCC3(CC2)N=C(c2cccc(OC(F)(F)F)c2)NC3=O)c(C)c1)C1CCOCC1 [Compound 616, N-(3,5-dimethyl-4-{(E)-2-[4-oxo-2-(3-trifluoromethoxy-phenyl)-1,3,8-triaza-spiro[4.5]dec-1-ene-8-sulfonyl]-vinyl}-phenyl)-N-(tetrahydro-pyran-4-yl)-acetamide] | 94 |
| Cc1cc(N(C)c2c(N)c(=O)c2=O)cc(C)c1CCS(=O)(=O)N1CCC2(CC1)N=C([C@H]1CC[C@H](C)CC1)NC2=O [Compound 1368, 3-Amino-4-[(3,5-dimethyl-4-{2-[2-(4-methyl-cyclohexyl)-4-oxo-1,3,8-triaza-spiro[4.5]dec-1-ene-8-sulfonyl]-ethyl}-phenyl)-methyl-amino]-cyclobut-3-ene-1,2-dione] | 83 |
| NS(=O)(=O)CCCn1ccc2c(/C=C/S(=O)(=O)N3CCC4(CC3)N=C(C3CCCCC3)NC4=O)cccc21 [Compound 484, 3-{4-[(E)-2-(2-cyclohexyl-4-oxo-1,3,8-triaza-spiro[4.5]dec-1-ene-8-sulfonyl)-vinyl]-indol-1-yl}-propane-1-sulfonic acid amide] | 47 |
| Cc1cc(C(=O)N(C)C)ccc1CCS(=O)(=O)N1CCC2(CC1)N=C(COc1ccc(F)cc1)NC2=O [Compound 125, 4-{2-[2-(4-fluoro-phenoxymethyl)-4-oxo-1,3,8-triaza-spiro[4.5]dec-1-ene-8-sulfonyl]-ethyl}-3,N,N-trimethyl-benzamide] | 62 |
| Cc1cc(N2C(=O)CC[C@@H]2CO)cc(C)c1/C=C/S(=O)(=O)N1CCC2(CC1)N=C(c1cccc(OC(F)(F)F)c1)NC2=O [Compound 258, 8-{(E)-2-[4-((R)-2-hydroxymethyl-5-oxo-pyrrolidin-1-yl)-2,6-dimethyl-phenyl]-ethenesulfonyl}-2-(3-trifluoromethoxy-phenyl)-1,3,8-triaza-spiro[4.5]dec-1-en-4-one] | 87 |
| O=C1NC([C@@H]2C[C@H]3CC[C@@H]2C3)=NC12CCN(S(=O)(=O)c1cccc(Cl)c1)CC2 [Compound 23, 2-(1R,2R,4S)-bicyclo[2.2.1]hept-2-yl-8-(3-chloro-benzenesulfonyl)-1,3,8-triaza-spiro[4.5]dec-1-en-4-one] | 41 |
